Data: patent US9102629B2, “Polymorphic forms of 4-phenylamine quinazoline derivative, the preparation method and uses thereof” (priority 2008, dated 2015)

Key:
human lung cancer A549 = assay: Tumor-inhibitory effect on A549 transplanted to nude mouse; type: in vivo, nude mice; conditions: 100 mg/kg ig twice a day, 3 weeks, p-Toluenesulfonate
Procedure: (§1) The diameters of the transplanted tumors of nude mice were measured with a vernier caliper. The animals were grouped randomly when the tumors grew to a size of 80-100 mm^3. […] The positive control drug MMC (Mitomycin) was intravenously administered once on the first day with a dose of 5 mg/kg. The negative control group were administered with 0.5% CMC-Na (Carboxymethyl Cellulose Sodium) with a dose of 0.2 mL/per mouse. The long axis (a) and the short axis (b) of the tumors were measured twice every week and the nude mice were weighed at the same time. […] RTV=Vt/V0, wherein V0 represents the tumor volume measured at the grouping time of administration, and Vt represents the tumor volume measured each time). The relative tumor proliferation rate T/C (%) was chosen as the index to evaluate the anti-tumor activity, which can be calculated according to the following formula: T/C (%)=(TRTV/CRTV)×100 TRTV: RTV of the treated group; CRTV: RTV of the negative control group The standard for evaluating the effectiveness: […]

[1] = Drug absorption in SD rat, intragastric administration; type: in vivo, SD rat (Sprague Dawley rat); conditions: ig, 30 mg/kg, plasma, p-Toluenesulfonate
Procedure: Intragastric administration (ig): 16 healthy SD rats, male, weighed 200˜250 g, and grouped into 4 groups randomly, were each administered intragastrically with a drug:the compound (21.68 mg/kg) prepared according to Example 1, Form A, B or C of p-toluenesulfonate of the compound (30 mg/kg). The blood samples were collected at 0.5, 1.0, 1.5, 2.0, 3.0, 5.0, 7.0, 9.0, 12 and 24 hours after administration, which were then isolated to prepare the plasma. The concentration of the drug in the plasma was determined by means of liquid chromatography/mass spectrometry, and the concentration-time curve was obtained.

[2] = Light stability test (illumination 4500 lx±500 lx); type: physicochemical; conditions: p-Toluenesulfonate; for light stability: 4500 lx±500 lx, one month, in words; for Purity (%): illumination 4500 lx±500 lx
Excerpt: The purity of Form A was detected at 0, 10 and 30 days, which was based to deduce to the light stability of Form A. The light stability of Form B and Form C were also deduced by this method.

[3] = Toxicity test of long-term administration; type: in vivo; conditions: SD rats, ig, 20, 50, 100, 500 or 800 mg/(kg·day), four weeks
Procedure: 80 healthy SD rats, male and weighed 200˜250 g, were grouped into 16 groups randomly, and were each intragastrically administered with Form A, B or C of the p-toluenesulfonate of the compound of formula (I) or a blank solvent (Five test groups with the dose of 20, 50, 100, 500 or 800 mg/(kg·day) and a solvent control group were set).

human lung cancer Calu-3 = assay: Tumor-inhibitory effect on Calu-3 transplanted to nude mouse; type: in vivo, nude mice; conditions: 100 mg/kg ig twice a day, 3 weeks, p-Toluenesulfonate
Procedure: as §1

[4] = Thermal stability test (storage at 60° C.); type: physicochemical; conditions: p-Toluenesulfonate; for thermal stability: 60° C., one month, in words; for Purity (%): stored at 60° C.
Excerpt: The purity of Form A was detected at 0, 10 and 30 days, which was based to deduce the thermal stability of Form A. The thermal stability of Form B and Form C were also deduced by this method.

[5] = tested on: human ovarian cancer SKOV-3; assay: Tumor-inhibitory effect on SKOV-3 transplanted to nude mouse; type: in vivo, BALB/cA nude mouse; conditions: for relative tumor proliferation rate T/C: SKOV-3, 3 weeks, p-Toluenesulfonate; for relative tumor proliferation rate T/C / tumor inhibitory effects: 100 mg/kg ig twice a day; for tumor inhibitory effects: summary in words for SKOV-3, Calu-3 and A549 models
Procedure: A tumor SKOV-3 in vigorous growth period was selected and cut into several uniform bits of a size of about 1.5 mm^3, which was inoculated subcutaneously to the right armpit of the BALB/cA nude mice using trocar under sterile conditions. The diameters of the transplanted tumors of nude mice were measured with a vernier caliper. The animals were grouped randomly when the tumors grew to a size of 80-100 mm^3. The tested animal group were intragastrically administrated through mouth as mentioned above once a day for 3 weeks continuously. The positive control drug MMC (Mitomycin) was intravenously administered once on the first day with a dose of 5 mg/kg. The negative control group were administered with 0.5% CMC-Na (Carboxymethyl Cellulose Sodium) with a dose of 0.2 mL/per mouse. The long axis (a) and the short axis (b) of the tumors were measured twice every week and the nude mice were weighed at the same time. According to the formula V=ab^2/2, the tumor volume (mm^3) could be calculated, based on which the relative tumor volume (RTV) was calculated (Calculation Formula: RTV=Vt/V0, wherein V0 represents the tumor volume measured at the grouping time of administration, and Vt represents the tumor volume measured each time). The relative tumor proliferation rate T/C (%) was chosen as the index to evaluate the anti-tumor activity, which can be calculated according to the following formula: T/C (%)=(TRTV/CRTV)×100
TRTV: RTV of the treated group; CRTV: RTV of the negative control group
V0 represents the tumor volume before the administration, and V21 represents the tumor volume after 3 weeks of continuous administration.
(§2) According to the experimental method mentioned above, the tumor-bearing nude mice, into which the human ovarian cancer SKOV-3, the human lung cancer Calu-3, and the human lung cancer A549 were transplanted respectively, were intragastrically administrated with Form B (100 mg/kg) of the present invention through mouth twice a day for 3 weeks continuously.
as §2, with “SKQV-3,” for “SKOV-3,”, “C” for “B”

[6] = Hygroscopicity test (high moisture environment of 92.5%); type: physicochemical; conditions: p-Toluenesulfonate; for stability under the environment of high moisture: 92.5% moisture, one month, in words; for Purity (%): high moisture environment of 92.5%
Excerpt: The purity of Form A was detected at 0, 10 and 30 days, which was based to deduce the hygroscopicity of Form A. The hygroscopicities of Form B and Form C were also deduced by this method.

[7] = tested on: human epidermatoid squamous cancer A431; assay: Tumor-inhibitory effect on A431 transplanted to nude mouse; type: in vivo, BALB/cA nude mouse; conditions: for Weight of animals (g) (without tumor) / Tumor inhibition rate % / Weight of tumors (g) x ± SD: 13 days; for Tumor inhibition rate %: by tumor weight; for Weight of tumors (g) x ± SD: killed 23 days after inoculation
Procedure: A well-developed solid tumor A431 was selected and cut into several uniform bits of a size of 2-3 mm under sterile conditions, with one bit being inoculated subcutaneously to the right armpit of each of the BALB/cA nude mice using trocar. 7 days after inoculation, the mice were grouped randomly and were intragastrically administrated through mouth for 13 days continuously. The long axis (a) and the short axis (b) of the tumors were measured with a vernier caliper every 4 days. According to the formula V=ab^2/2, the tumor volume (mm^3) could be calculated. The tested animals were neck-off killed 23 days after the inoculation, and anatomized to obtain the tumors. The tumors were weighed, and the tumor inhibition rate was calculated.

[8] = tested on: human breast cancer cell BT-474; conditions: from WO 2007/082434; in words; cited from earlier work
[9] = tested on: human epidermoid squamous cancer cell A431; conditions: from WO 2007/082434; in words; cited from earlier work
[10] = tested on: human epidermoid squamous cancer cell A431; conditions: from WO 2007/082434; in words; cited from earlier work; remark: listed apart in the source
Erb-B2 kinase = Erb-B2 kinase (Homo sapiens, UniProt P04626); conditions: in vitro; from WO 2007/082434; in words; cited from earlier work
Erb-B2 kinase, sequence (P04626 23-1255): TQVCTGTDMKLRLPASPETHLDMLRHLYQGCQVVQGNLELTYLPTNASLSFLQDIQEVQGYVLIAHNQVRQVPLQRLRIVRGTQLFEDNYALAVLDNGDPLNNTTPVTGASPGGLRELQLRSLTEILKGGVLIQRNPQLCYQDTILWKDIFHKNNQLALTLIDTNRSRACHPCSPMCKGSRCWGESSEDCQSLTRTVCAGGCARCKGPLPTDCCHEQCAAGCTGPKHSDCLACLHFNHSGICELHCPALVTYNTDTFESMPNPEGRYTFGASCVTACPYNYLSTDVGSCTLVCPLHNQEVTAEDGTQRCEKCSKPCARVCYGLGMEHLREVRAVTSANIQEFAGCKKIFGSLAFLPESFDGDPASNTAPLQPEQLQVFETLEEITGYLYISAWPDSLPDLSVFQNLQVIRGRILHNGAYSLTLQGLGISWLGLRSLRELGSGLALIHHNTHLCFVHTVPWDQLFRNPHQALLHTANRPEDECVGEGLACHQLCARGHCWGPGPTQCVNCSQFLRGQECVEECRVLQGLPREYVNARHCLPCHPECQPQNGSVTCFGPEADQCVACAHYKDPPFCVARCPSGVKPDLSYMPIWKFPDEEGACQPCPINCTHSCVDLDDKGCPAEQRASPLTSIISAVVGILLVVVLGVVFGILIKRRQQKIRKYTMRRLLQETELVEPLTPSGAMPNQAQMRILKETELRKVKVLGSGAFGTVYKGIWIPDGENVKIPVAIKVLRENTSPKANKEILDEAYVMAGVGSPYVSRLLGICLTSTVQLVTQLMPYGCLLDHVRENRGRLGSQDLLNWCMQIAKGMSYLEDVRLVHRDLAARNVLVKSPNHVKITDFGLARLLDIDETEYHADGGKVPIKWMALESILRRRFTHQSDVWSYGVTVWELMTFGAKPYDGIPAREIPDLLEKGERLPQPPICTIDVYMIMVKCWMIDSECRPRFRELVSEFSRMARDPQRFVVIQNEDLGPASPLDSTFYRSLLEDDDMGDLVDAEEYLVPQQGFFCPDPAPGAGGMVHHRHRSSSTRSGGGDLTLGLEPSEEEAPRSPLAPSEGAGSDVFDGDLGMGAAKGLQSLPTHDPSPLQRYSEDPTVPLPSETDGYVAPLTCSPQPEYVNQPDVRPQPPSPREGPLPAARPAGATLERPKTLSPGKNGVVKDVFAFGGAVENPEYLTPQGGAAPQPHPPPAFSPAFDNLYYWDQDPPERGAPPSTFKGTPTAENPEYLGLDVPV

Row | light stability [2] | Purity (%) ([2]; detect time 0) | Purity (%) ([2]; detect time 10) | Purity (%) ([2]; detect time 30) | thermal stability [4] | Purity (%) ([4]; detect time day 0) | Purity (%) ([4]; detect time day 10) | Purity (%) ([4]; detect time day 30) | stability under the environment of high moisture [6] | Purity (%) ([6]; detect time 0) | Purity (%) ([6]; detect time 10) | Purity (%) ([6]; detect time 30) | Structure (SMILES) | relative tumor proliferation rate T/C (human lung cancer A549) [%] | food intake [3] | physical signs, appearance, behaviors, activities or shape of dejecta [3] | weight and weight increase of the rats [3] | relative tumor proliferation rate T/C (human lung cancer Calu-3) [%] | relative tumor proliferation rate T/C [5] [%] | tumor inhibitory effects [5] | also measured
1 | excellent | 99.26 | 99.26 | 99.24 | excellent | 99.26 | 99.21 | 99.11 | very stable | 99.26 | 99.25 | 99.24 | C=CC(=O)Nc1ccc2ncnc(Nc3ccc(OCc4cccc(F)c4)c(Cl)c3)c2c1.Cc1ccc(S(=O)(=O)O)cc1 [Form B, N-{4-[3-chloro-4-(3-fluoro-benzyloxy)phenylamino]-quinazolin-6-yl}-acrylamide p-Toluenesulfonate] | 56.3 | normal | no abnormality | basically similar to the solvent control group | 35.1 | 28.5 | significant tumor inhibitory effects | AUC0-t [1]: 978 ng·h/mL
2 | good | 99.03 | 98.54 | 98.42 | good | 99.03 | 97.08 | 97.55 | comparatively stable | 99.03 | 98.27 | 98.08 | C=CC(=O)Nc1ccc2ncnc(Nc3ccc(OCc4cccc(F)c4)c(Cl)c3)c2c1.Cc1ccc(S(=O)(=O)O)cc1 [Form C, N-{4-[3-chloro-4-(3-fluoro-benzyloxy)phenylamino]-quinazolin-6-yl}-acrylamide p-Toluenesulfonate] | 58.7 | normal | no abnormality | basically similar to the solvent control group | 39.4 | 23.2 | significant tumor inhibitory effects | 
3 | good | 98.64 | 98.16 | 97.24 | excellent | 98.64 | 98.64 | 98.64 | very stable | 98.64 | 98.62 | 98.62 | C=CC(=O)Nc1ccc2ncnc(Nc3ccc(OCc4cccc(F)c4)c(Cl)c3)c2c1.Cc1ccc(S(=O)(=O)O)cc1 [Form A, N-{4-[3-chloro-4-(3-fluoro-benzyloxy)phenylamino]-quinazolin-6-yl}-acrylamide p-Toluenesulfonate] |  | normal | no abnormality | basically similar to the solvent control group |  |  |  | Weight of animals (g) (without tumor) ([7]; 25 mg/kg ig, A431 nude mouse): 21.58 ± 2.18 g; Tumor inhibition rate % ([7]; 25 mg/kg ig): 29.99%; Weight of tumors (g) x ± SD ([7]; 25 mg/kg ig): 0.79 ± 0.20 g; Weight of animals (g) (without tumor) ([7]; 50 mg/kg ig, A431 nude mouse): 22.87 ± 3.96 g; Tumor inhibition rate % ([7]; 50 mg/kg ig): 38.67%; Weight of tumors (g) x ± SD ([7]; 50 mg/kg ig): 0.69 ± 0.17 g; Weight of animals (g) (without tumor) ([7]; 100 mg/kg ig, A431 nude mouse): 22.13 ± 1.83 g; Tumor inhibition rate % ([7]; 100 mg/kg ig): 43.63%; Weight of tumors (g) x ± SD ([7]; 100 mg/kg ig): 0.64 ± 0.23 g; inhibitory effect on the tumor ([7]; A431 nude mouse, ig, in words): significant inhibitory effect; tumor inhibitory effect ([5]; SKOV-3 nude mouse, ig once a day, in words): significant tumor inhibitory effect
4 |  |  |  |  |  |  |  |  |  |  |  |  | C=CC(=O)Nc1ccc2ncnc(Nc3ccc(OCc4cccc(F)c4)c(Cl)c3)c2c1 [Compound of formula (I), N-{4-[3-chloro-4-(3-fluoro-benzyloxy)phenylamino]-quinazolin-6-yl}-acrylamide] |  |  |  |  |  |  |  | inhibiting the growth of BT-474 cells [8]: relatively good effect; tumor-inhibiting effect on A431 implanted into a nude mouse [9]: significant tumor-inhibiting effect; inhibiting the growth of A431 cells [10]: relatively good effect; inhibitory activity against Erb-B2 kinase (Erb-B2 kinase): excellent inhibitory activity
